{"source": "patent US20180296814A1", "about": "“ADMINISTRATION OF DRUGS TO A PATIENT” (Progenity, Inc., priority 2010, published 2018)", "origin": "cited, not measured here", "conditions": "regional absorption in the intestinal tract, rats", "data": [{"substance": "salmon calcitonin", "values": [{"measurement": "location of maximum absorption", "result": "ileum"}]}]}
